Patent US5885992A, “Triterpene derivative and medicinal composition” (Nippon Shinyaku Company, Limited, priority 1994, dated 1999)

Assays:
glomeruli = experiment: Effect on nephritis in MRL/lpr mice: histopathological findings of glomeruli; assay type: in vivo, mouse; details: 10 weeks; for Incidence of glomerular lesions, grade - (no remarkable change): control 1; for Incidence of glomerular lesions, grade 4+ (extremely marked change): control 8, **P < 0.01; for Incidence of glomerular lesions, grade 1+ (slight change): control 14; for Incidence of glomerular lesions, grade 3+ (marked change): control 25; for Incidence of glomerular lesions, grade 2+ (moderate change): control 52
Procedure: (§1) Effect on nephritis in MRL/lpr mice
(§2) The MRL/lpr mouse is a model of lupus nephritis in mice which spontaneously and secondarily develop proliferative glomerulonephritis due to autoimmune disease. Using this nephritis model, a 10-week long-term oral administration experiment with the test drugs was performed.
(§3) MRL/lpr mice purchased from Jackson Laboratory and maintained in Nippon Shinyaku Co., Ltd. were used.
(§4) A suspension of each test drug was administered orally once a day on 6 days per week from the age 8 weeks for 10 weeks. During the administration period, the semi-quantitative test for urinary protein (regent strips) was performed. At the end of the administration period, the animals were sacrificed and the kidneys were removed. The kidney was fixed in 10% phosphate-buffered formalin and, in the routine manner, paraffin sections were prepared and stained with periodic acid-Schiff stain for microscopy. For histopathological evaluation, the glomerular lesions in each tissue preparation were observed by light microscopy and graded according to the method of Berden (J. Immunology, 130, 1699-1705, 1983) and the incidence (%) of each grade was calculated for each group. Statistical analysis was performed by Mann Whitney's rank-sum test.

MRL/lpr mice = experiment: Effect on nephritis in MRL/lpr mice: incidence of proteinuria; assay type: in vivo, mouse; details: 10 weeks; for Number of animals with proteinuria, grade 1+ (30-100 mg/dl) / Number of animals with proteinuria, grade - (negative): control 0 of 12; for Number of animals with proteinuria, grade 3+ (300-1000 mg/dl): control 1 of 12; for Number of animals with proteinuria, grade 2+ (100-300 mg/dl): control 4 of 12; for Number of animals with proteinuria, grade 4+ (>1000 mg/dl): control 7 of 12, *P < 0.05
Procedure: as §1, §2, §3, §4

mice = experiment: Acute toxicity; assay type: in vivo, mouse; details: 2 g/kg p.o.; for Acute toxicity: abnormal findings: general condition up to 1 week; for Acute toxicity: death: observed up to 1 week
Text: Compound No. 1 and the compound No. 9 were examined.

mesangial cells [1] = experiment: Effect on anti-Thy-1 antibody nephritis in rats (number of mesangial cells per glomerulus); assay type: in vivo, rat; details: 100 mg/kg p.o. once a day for 7 days, n=5, mean ± standard error, **P < 0.01, controls (distilled water): 59.5 ± 3.5 (No. 1), 61.8 ± 2.2 (No. 2), 54.8 ± 2.1 (No. 9), intact animal 43
Procedure: Anti-Thy-1 antibody-induced nephritis is a model of glomerulonephritis constructed by utilizing the reaction between the Thy-1 antigen occurring as a membrane protein of mesangial cells and the antibody to the antigen. In this model, injuries to mesangial cells and lesions associated with mesangial cell proliferation are found.
Preparation of anti-Thy-1 antibody
Preparation of the antibody was carried out in accordance with the method of Ishizaki et al. referred to above. Thus, an adjuvant suspension of rat thymocytes was prepared and subcutaneously administered to rabbits for immunization. After two booster doses, the blood was collected and the serum separated was subjected to inactivation and absorption to provide an antiserum (anti-Thy-1 antibody).
A predetermined amount of the antiserum was injected intravenously from the tail vein of rats to induce nephritis. Starting the following day after injection, a suspension of the test drug was administered orally once a day for 7 days. On day 8 following the beginning of administration, the animals were sacrificed and the kidneys were removed. The kidney was fixed in 10% phosphate-buffered formalin and, in the routine manner, paraffin sections were prepared and stained with periodic acid-schiff stain for microscopy. For histopathological evaluation, the number of cells in the glomeruli (mainly mesangial cells) in each tissue preparation was counted under a light microscope. Statistical analysis was performed by unpaired t-test.

mesangial cells [2] = experiment: Inhibitory effect on mesangial cell proliferation in vitro; assay type: cell-based; details: Rattus norvegicus, 10 μg/ml, 72 hours, LPS-stimulated macrophage culture supernatant, crystal violet, relative to control, read-out: Inhibition rate of mesangial cell proliferation in vitro
Procedure: Inhibitory effect on mesangial cell proliferation in vitro
Glomeruli were isolated from the rat kidney by the sieving method. Mesangial cells were obtained from isolated these glomeruli which were maintained in culture. The mesangial cells were seeded on the plate and, after 24 hours, an LPS (lipopolysaccharide)-stimulated macrophage culture supernatant (a solution containing growth factor) and the test drug were added and the plate was incubated for 72 hours. The mesangial cells were fixed and stained with crystal violet and the absorbance was measured. The inhibitory activity of the mesangial cell proliferation of the test compound was evaluated in relative inhibition rate (%) in comparison with the absorbance of the control obtained under the same culture conditions.

CC1(C)CC[C@]2(C(=O)O)CC[C@]3(C)C(=CC[C@@H]4[C@@]5(C)CC[C@H](O)[C@@](C)(CO)[C@@H]5CC[C@]43C)[C@@H]2C1 [Compound No. 1, 3β,23-dihydroxyolean-12-en-28-oic acid]
Incidence of glomerular lesions, grade - (no remarkable change) (glomeruli; 10 mg/kg p.o.): 3% | Incidence of glomerular lesions, grade 4+ (extremely marked change) (glomeruli; 10 mg/kg p.o.): 2% | Incidence of glomerular lesions, grade 1+ (slight change) (glomeruli; 10 mg/kg p.o.): 29% | Incidence of glomerular lesions, grade 3+ (marked change) (glomeruli; 10 mg/kg p.o.): 9% | Incidence of glomerular lesions, grade 2+ (moderate change) (glomeruli; 10 mg/kg p.o.): 57% | Incidence of glomerular lesions, grade - (no remarkable change) (glomeruli; 30 mg/kg p.o.): 3% | Incidence of glomerular lesions, grade 4+ (extremely marked change) (glomeruli; 30 mg/kg p.o.): 0% | Incidence of glomerular lesions, grade 1+ (slight change) (glomeruli; 30 mg/kg p.o.): 25% | Incidence of glomerular lesions, grade 3+ (marked change) (glomeruli; 30 mg/kg p.o.): 9% | Incidence of glomerular lesions, grade 2+ (moderate change) (glomeruli; 30 mg/kg p.o.): 63% | Number of animals with proteinuria, grade 1+ (30-100 mg/dl) (MRL/lpr mice; 10 mg/kg p.o., n=13): 7 | Number of animals with proteinuria, grade - (negative) (MRL/lpr mice; 10 mg/kg p.o., n=13): 0 | Number of animals with proteinuria, grade 3+ (300-1000 mg/dl) (MRL/lpr mice; 10 mg/kg p.o., n=13): 1 | Number of animals with proteinuria, grade 2+ (100-300 mg/dl) (MRL/lpr mice; 10 mg/kg p.o., n=13): 2 | Number of animals with proteinuria, grade 4+ (>1000 mg/dl) (MRL/lpr mice; 10 mg/kg p.o., n=13): 3 | Number of animals with proteinuria, grade 1+ (30-100 mg/dl) (MRL/lpr mice; 30 mg/kg p.o., n=14): 4 | Number of animals with proteinuria, grade - (negative) (MRL/lpr mice; 30 mg/kg p.o., n=14): 3 | Number of animals with proteinuria, grade 3+ (300-1000 mg/dl) (MRL/lpr mice; 30 mg/kg p.o., n=14): 5 | Number of animals with proteinuria, grade 2+ (100-300 mg/dl) (MRL/lpr mice; 30 mg/kg p.o., n=14): 0 | Number of animals with proteinuria, grade 4+ (>1000 mg/dl) (MRL/lpr mice; 30 mg/kg p.o., n=14): 2 | Acute toxicity: abnormal findings (mice): nor was there any abnormal findings | Acute toxicity: death (mice): no death was encountered | Number of mesangial cells per glomerulus (mesangial cells [1]): 48.2 ± 1.6

CC(=O)OCCOC(=O)[C@]12CCC(C)(C)C[C@H]1C1=CC[C@@H]3[C@@]4(C)CC[C@H](O)[C@@](C)(CO)[C@@H]4CC[C@@]3(C)[C@]1(C)CC2 [Compound No. 2, 2-Acetoxyethyl 3β,23(4α)-dihydroxyolean-12-en-28-oate]
Number of mesangial cells per glomerulus (mesangial cells [1]): 50.9 ± 1.3 | inhibition at 10 µg/mL (mesangial cells [2]): 57.9%

COCCNC(=O)[C@]12CCC(C)(C)C[C@H]1C1=CC[C@@H]3[C@@]4(C)CC[C@H](O)[C@@](C)(CO)[C@@H]4CC[C@@]3(C)[C@]1(C)CC2 [Compound No. 9, N-(2-methoxyethyl)-3β,23(4α)-dihydroxyolean-12-en-28-amide]
Acute toxicity: abnormal findings (mice): nor was there any abnormal findings | Acute toxicity: death (mice): no death was encountered | Number of mesangial cells per glomerulus (mesangial cells [1]): 45.8 ± 0.7 | inhibition at 10 µg/mL (mesangial cells [2]): 43.3%
